Entries after “also recorded” stand apart in the source; their conditions may differ.
Key:
NMD = NMD luciferase reporter assay with vectors containing NMD signals associated with β039-thalassemia; format: cell-based; details: for drug concentrations at which inhibition of NMD is seen: dose-dependent; for submaximal effect of the NMD inhibitor when combined with nonsense suppressor G418: 15 μM CPX, 125 μM DEF, 200 μM HYD, G418 at 800 μM; for NMD in the thalassemia model system: ratio of Renilla luciferase from NMD-sensitive reporter to matched NMD-insensitive control
Method: The experiment of FIG. 5 used RNA silencing with small interfering RNAs (siRNAs) to deplete eIF5A itself, or either of the modifying enzymes required for hypusine formation. […] Data are shown as ratio of luciferase activities.
These experiments were carried out in the well-authenticated assay system using vectors containing NMD signals associated with β^039-thalassemia (Woeller C F, Gaspari M, Isken O, Maquat L.: EMBO Rep. 2008 May; 9(5):446-51).

eIF5A:DHS complexes = target: T1, eIF5A:DHS complexes (Homo sapiens, UniProt P49366); experiment: Co-immunoprecipitation of endogenous eIF5A with FLAG-DHS from transfected 293T cells; format: cell-based; details: FLAG-DHS transfected 293T cells; GC7 10 μM, CPX 30 μM, DEF 250 μM
T1 construct: expressed in transfected cells; host or cells: 293T cells (FLAG-DHS transfected; eIF5A endogenous)
T1 sequence (P49366 1-369): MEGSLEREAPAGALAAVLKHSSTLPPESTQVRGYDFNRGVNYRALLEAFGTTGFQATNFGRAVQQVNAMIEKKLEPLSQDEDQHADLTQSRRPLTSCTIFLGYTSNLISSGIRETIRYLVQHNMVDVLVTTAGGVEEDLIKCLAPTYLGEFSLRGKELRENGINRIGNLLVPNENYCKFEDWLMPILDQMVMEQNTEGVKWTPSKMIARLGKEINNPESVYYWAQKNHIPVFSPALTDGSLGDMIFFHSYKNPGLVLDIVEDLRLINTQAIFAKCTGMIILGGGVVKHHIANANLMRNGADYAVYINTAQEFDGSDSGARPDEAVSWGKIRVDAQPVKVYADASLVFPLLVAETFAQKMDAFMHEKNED
Method: (§1) FIG. 2E illustrates 293T cells transfected with FLAG-DHS, FLAG-DOHH or empty vector (control) were treated with GC7, CPX, or DEF, or no drug (-) at the same concentration as in FIG. 2D. Immunoprecipitates obtained with anti-FLAG antibody were immunoblotted and probed with anti-eIF5A antibody (BD). WCE equivalent to 5% of the input was immunoblotted as a further control. Reciprocally, the interaction between endogenous eIF5A and tagged DOHH was inhibited by CPX and DEF (FIG. 2E, right). Similarly, the interaction of endogenous eIF5A with tagged DHS was inhibited by GC7 (FIG. 2E, left), but was resistant to CPX and DEF (not shown).

eIF5A:DOHH complex = target: T2, eIF5A:DOHH complex (Homo sapiens, UniProt Q9BU89); experiment: Co-immunoprecipitation of the eIF5A:DOHH complex from transfected 293T cells; format: cell-based; details: CPX 30 μM, DEF 250 μM; for association of endogenous DOHH with FLAG-eIF5A (co-immunoprecipitation): GC7 10 μM, P2 30 μM, DFOX 10 μM, 24 hours post-transfection; for interaction between endogenous eIF5A and tagged DOHH: FLAG-DOHH transfected 293T cells
T2 construct: Endogenous DOHH co-immunoprecipitated with FLAG-eIF5A; expressed in transfected cells; host or cells: 293T cells (FLAG-eIF5A transfected; DOHH endogenous)
T2 sequence (Q9BU89 1-302): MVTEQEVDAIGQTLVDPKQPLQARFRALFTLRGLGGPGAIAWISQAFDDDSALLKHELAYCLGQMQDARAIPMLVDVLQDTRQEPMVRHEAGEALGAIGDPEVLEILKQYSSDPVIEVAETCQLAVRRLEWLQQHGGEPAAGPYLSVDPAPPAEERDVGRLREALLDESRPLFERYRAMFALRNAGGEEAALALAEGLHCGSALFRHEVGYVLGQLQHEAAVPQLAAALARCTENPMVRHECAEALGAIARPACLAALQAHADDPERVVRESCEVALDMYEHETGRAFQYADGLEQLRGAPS
Method: Unmodified eIF5A (lysine-50) immunoprecipitates with DHS, and deoxyhypusyl-eIF5A interacts with DOHH in vitro. The deoxyhypusyl-eIF5A:DOHH complex formed in vivo can be detected by immunoprecipitation from cell extracts. Taking advantage of this finding, the effects of the compounds on the enzyme-substrate interaction was tested, the results of which are illustrated in FIG. 2D. FLAG-eIF5A was expressed in 293T cells. 293T cells transfected with FLAG-eIF5A were untreated (-) or treated with GC7 (10 μM) or CPX (30 μM), P2 (30 μM), DEF (250 μM), or DFOX (10 μM). WCE prepared at 24 hours post-transfection was immunoprecipitated with anti-FLAG antibody. Complexes that immunoprecipitated with anti-FLAG antibody were immunoblotted and probed with antibodies against DOHH. […] As a further control, the DHS inhibitor GC7 was included in this assay. […] As expected, none of the compounds affected the immunoprecipitation of FLAG-eIF5A (FIG. 2D, middle panel; note that the band marked with an asterisk (*) is background due to IgG light chain) or the expression of endogenous eIF5A (FIG. 2D, bottom panel).
as §1

DOHH = target: T3, DOHH (Homo sapiens, UniProt Q9BU89); experiment: Immunoblot of eIF5A modification (maturation) in 293T cells transfected with FLAG-tagged eIF5A; format: cell-based; details: for concentration range reducing the appearance of mature eIF5A: FLAG-eIF5A, NIH-353 immunoblot
T3 construct: endogenous in cells; host or cells: 293T cells
T3 sequence (Q9BU89 1-302): T2 sequence (Q9BU89 1-302)
Text: To examine the effect of compounds on the synthesis of modified eIF5A, 293T cells transfected with a FLAG-tagged eIF5A expression vector were simultaneously treated with ciclopirox (“CPX”) or deferiprone (“DEF”).
FLAG-eIF5A was monitored using NIH-353 and anti-FLAG antibodies (FIGS. 2A and 2B). FIG. 2A illustrates inhibition of eIF5A modification in 293T cells. Cells transfected with FLAG-tagged eIF5A were untreated or treated with increasing concentrations of CPX as indicated, or with agent P2. FIG. 2B illustrates cells transfected with FLAG-tagged eIF5A that were untreated or treated with increasing concentrations of DEF as indicated, or with DFOX. At 24 hours post-transfection, whole cell extract (“WCE”) was analyzed by immunoblotting with the NIH-353 anti-eIF5A antibody (upper panel) and anti-actin antibody (lower panel). The […] antibody reacts preferentially with post-translationally modified eIF5A. CPX reduced the appearance of mature eIF5A over the 3-30 μM concentration range, while DEF was effective at 200-400 μM. […] In addition to the CPX homolog Agent P2, deferoxamine (“DFOX”; Desferal™) was used as a control compound. DFOX, a metal-binding hydroxamate like CPX and Agent P2 (FIG. 3), is a globally used medicinal iron chelator.
FIG. 2C illustrates cells transfected with FLAG-tagged eIF5A that were treated with CPX (30 μM), P2 (30 μM), DEF (250 μM), DFOX (10 μM), or no compound (-). At 24 hours post transfection, WCE was analyzed by immunoblotting with the NIH-353 anti-eIF5A antibody (upper panel) and anti-FLAG antibody (lower panel). The control culture was transfected with empty vector and no compound was added.

[1] = cited from earlier work
[2] = 293T cells, 24 hours post-transfection

| SMILES | drug concentrations at which inhibition of NMD is seen (NMD; thalassemia model system) | interaction of endogenous eIF5A with tagged DHS (eIF5A:DHS complexes) | association of endogenous DOHH with FLAG-eIF5A (co-immunoprecipitation) (eIF5A:DOHH complex) | concentration range reducing the appearance of mature eIF5A (DOHH; [2]) [µM] | interaction between endogenous eIF5A and tagged DOHH (eIF5A:DOHH complex) | submaximal effect of the NMD inhibitor when combined with nonsense suppressor G418 (NMD) | NMD in the thalassemia model system (NMD) | other results |
| --- | --- | --- | --- | --- | --- | --- | --- | --- |
| NNc1nncc2ccccc12 [HYD, hydralazine] | 200/400 | – | – | – | – | – | – | – |
| NCCCCCCCN=C(N)N [GC7] | – | inhibited; also recorded: blocked formation | No DOHH was associated with FLAG-eIF5A | – | – | – | – | – |
| Cc1c(O)c(=O)ccn1C [DEF, deferiprone] | 125/250 | resistant | largely prevented; also recorded: destabilized | 200 to 400 | inhibited | distinctly enhanced | inhibited | concentration in serum ([1]; after oral medication): ≥ 250 µM; NMD inhibition by single compound (NMD; DEF at 125 μM, HYD at 200 μM, each alone): ineffective individually |
| Cc1ccn(O)c(=O)c1 [P2] | – | – | neither P2 or DFOX prevented; also recorded: Neither DFOX nor P2 had any effect | – | – | – | – | activity in cell-based assays (DOHH): little or no activity; effect on the appearance of mature FLAG-eIF5A (DOHH; 293T cells, 24 hours post-transfection, control compounds): little or no effect |
| CN[C@@H]1[C@@H](O)[C@@H](O[C@@H]2[C@@H](O)[C@H](O[C@H]3O[C@H]([C@@H](C)O)[C@@H](O)[C@H](O)[C@H]3N)[C@@H](N)C[C@H]2N)OC[C@]1(C)O [G418] | – | – | – | – | – | – | – | effect on expression (nonsense suppressor, for comparison) (NMD; thalassemia model system): expression-enhancing effect |
| Cc1cc(C2CCCCC2)n(O)c(=O)c1 [CPX, ciclopirox] | 15/30 | resistant | largely prevented; also recorded: destabilized | 3 to 30 | inhibited | distinctly enhanced | inhibited | levels in skin ([1]; topical preparations containing up to 57.5 mM): > 30 µM |
